Laboratory results published in the CheMixHub viscosity set.
Several values for one entry are separate records, joined by “and”; a condition that tells them apart may be missing. Equal entries are not always repeated.

Assay: xn = mol fraction of the nth substance listed

COc1ccccc1O + Nc1ccccc1
303.15 K, 101 kPa
Settings | viscosity [mPa·s]
x2 = 0.1 | 4.74
x2 = 0.2 | 4.9
x2 = 0.3 | 5.11
x2 = 0.35 | 5.15
x2 = 0.4 | 5.23
x2 = 0.45 | 5.12
x2 = 0.5 | 5.09
x2 = 0.55 | 4.94
x2 = 0.6 | 4.86
x2 = 0.7 | 4.58
x2 = 0.8 | 4.23
x2 = 0.9 | 3.61

CSCC[C@H](N)C(=O)O + O
viscosity, 101 kPa
Settings | 293.15 K | 298.15 K | 303.15 K | 308.15 K | 313.15 K | 318.15 K
x1 = 0.00045 | 1.011 mPa·s and 1.009 mPa·s | 0.8992 mPa·s and 0.8967 mPa·s | 0.8057 mPa·s and 0.8039 mPa·s | 0.727 mPa·s and 0.7258 mPa·s | 0.6602 mPa·s and 0.6603 mPa·s | 0.6044 mPa·s
x1 = 0.0009 | 1.019 mPa·s and 1.016 mPa·s | 0.9063 mPa·s and 0.903 mPa·s | 0.8126 mPa·s and 0.8103 mPa·s | 0.734 mPa·s and 0.7327 mPa·s | 0.6671 mPa·s and 0.6678 mPa·s | –
x1 = 0.0013 | 1.023 mPa·s | 0.9098 mPa·s | 0.8169 mPa·s | 0.7392 mPa·s | 0.6743 mPa·s | –
x1 = 0.00135 | – | 0.9131 mPa·s | 0.8195 mPa·s | 0.7408 mPa·s | 0.6735 mPa·s | 0.6178 mPa·s
x1 = 0.001798 | – | – | 0.8264 mPa·s | 0.7475 mPa·s | – | 0.6244 mPa·s
x1 = 0.0018 | – | 0.9165 mPa·s | 0.8232 mPa·s | 0.745 mPa·s | 0.6815 mPa·s | –
x1 = 0.002247 | 1.039 mPa·s | 0.9266 mPa·s | 0.833 mPa·s | 0.754 mPa·s | 0.687 mPa·s | 0.631 mPa·s
x1 = 0.00225 | 1.037 mPa·s | 0.9232 mPa·s | 0.8295 mPa·s | 0.7524 mPa·s | 0.688 mPa·s | –
x1 = 0.00269 | 1.044 mPa·s | 0.9295 mPa·s | 0.8368 mPa·s | 0.7588 mPa·s | 0.6951 mPa·s | –
x1 = 0.002693 | 1.046 mPa·s | 0.9335 mPa·s | 0.8396 mPa·s | 0.7607 mPa·s | 0.6936 mPa·s | 0.6373 mPa·s
x1 = 0.00314 | 1.05 mPa·s | 0.936 mPa·s | 0.8435 mPa·s | 0.7657 mPa·s | 0.7019 mPa·s | –
x1 = 0.003143 | 1.053 mPa·s | 0.9403 mPa·s | 0.8465 mPa·s | 0.7675 mPa·s | 0.6999 mPa·s | 0.6436 mPa·s
x1 = 0.003588 | 1.06 mPa·s | 0.9474 mPa·s | 0.8535 mPa·s | 0.7743 mPa·s | 0.7063 mPa·s | 0.6495 mPa·s
x1 = 0.00359 | 1.057 mPa·s | 0.9426 mPa·s | 0.85 mPa·s | 0.7724 mPa·s | 0.7087 mPa·s | –

Cc1ccc[n+](CCCO)c1.[Cl-] + O
viscosity [mPa·s], 100 kPa
Settings | x1 = 0.001832 | x1 = 0.002695 | x1 = 0.003588 | x1 = 0.005369 | x1 = 0.007151 | x1 = 0.008924
293.15 K | 1.065 | 1.09 | 1.114 | 1.16 | 1.204 | 1.246
298.15 K | 0.943 | 0.965 | 0.986 | 1.025 | 1.063 | 1.1
303.15 K | 0.841 | 0.86 | 0.877 | 0.912 | 0.945 | 0.976
308.15 K | 0.757 | 0.773 | 0.789 | 0.819 | 0.848 | 0.876
313.15 K | 0.682 | 0.696 | 0.709 | 0.735 | 0.76 | 0.784

O=C[C@H](O)[C@@H](O)[C@H](O)CO + O
viscosity, 101 kPa
Settings | x1 = 0.000546 | x1 = 0.0009 | x1 = 0.00124 | x1 = 0.0031 | x1 = 0.006 | x1 = 0.0063 | x1 = 0.013
293.15 K | – | – | – | 1.053 mPa·s | 1.118 mPa·s and 1.118 mPa·s (2×) | 1.118 mPa·s | 1.229 mPa·s and 1.229 mPa·s and 1.229 mPa·s
298.15 K | 0.9164 mPa·s | 0.9244 mPa·s | 0.9306 mPa·s | – | 0.9937 mPa·s and 0.9937 mPa·s and 0.9937 mPa·s | 0.9937 mPa·s | –
303.15 K | – | – | – | 0.8381 mPa·s | 0.8889 mPa·s and 0.8889 mPa·s (2×) | 0.8889 mPa·s | 0.986 mPa·s and 0.986 mPa·s and 0.986 mPa·s
308.15 K | – | – | – | 0.7529 mPa·s | 0.7916 mPa·s and 0.7916 mPa·s and 0.7916 mPa·s | 0.7916 mPa·s | 0.8843 mPa·s and 0.8843 mPa·s (2×)
313.15 K | – | – | – | 0.683 mPa·s | 0.7163 mPa·s and 0.7163 mPa·s and 0.7163 mPa·s | 0.7163 mPa·s | 0.798 mPa·s and 0.798 mPa·s and 0.798 mPa·s
318.15 K | – | – | – | – | 0.6565 mPa·s and 0.6565 mPa·s and 0.6565 mPa·s | 0.6565 mPa·s | 0.7216 mPa·s and 0.7216 mPa·s and 0.7216 mPa·s
